Among the data in patent publication US10131653B2, “Heterocyclic compound” (TAKEDA PHARMACEUTICAL COMPANY LIMITED, priority 2015, dated 2018) are inhibition values, retold here.

Structures can show the parent of a compound that is named as a salt. Where two headings read alike, the source gives them in different places.

Assay [1] deals with T1, human OX2 receptor (Homo sapiens, UniProt O43614).
T1 construct: expressed in transfected cells; host or cells: CHO cells
T1 sequence (O43614 1-444): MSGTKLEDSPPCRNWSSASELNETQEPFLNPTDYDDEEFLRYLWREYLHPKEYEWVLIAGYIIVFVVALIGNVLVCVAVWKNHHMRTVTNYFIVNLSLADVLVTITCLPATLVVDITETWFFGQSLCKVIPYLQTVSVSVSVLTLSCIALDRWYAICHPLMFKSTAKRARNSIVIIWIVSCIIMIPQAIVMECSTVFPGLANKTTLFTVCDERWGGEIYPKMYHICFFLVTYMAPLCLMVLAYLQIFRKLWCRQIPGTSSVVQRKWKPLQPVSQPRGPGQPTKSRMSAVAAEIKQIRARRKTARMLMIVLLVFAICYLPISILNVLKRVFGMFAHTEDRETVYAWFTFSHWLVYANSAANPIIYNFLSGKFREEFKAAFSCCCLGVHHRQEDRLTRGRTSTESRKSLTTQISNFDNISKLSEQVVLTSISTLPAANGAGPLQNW
The experiment in a line: Measurement of orexin receptor antagonistic activity (calcium fluorescence, FLIPRtetra). In kind it is cell-based. The conditions noted are these: CHO, read-out: Human Orexin2 receptor inhibition (at 10 μM). The method, then: (§1) Measurement of Orexin Receptor Antagonistic Activity
(§2) CHO cells forcibly expressing human OX1 receptor or human OX2 receptor were seeded in each well of 384 well black transparent bottom plate (BD Falcon) at 7,500 cells/well, and cultured for one day in a 5% CO2 incubator at 37° C. […] The plate was stood for 30 min in a 5% CO2 incubator at 37° C., and further stood at room temperature for 30 min. A test compound prepared by diluting with assay buffer B (HBSS, 20 mM HEPES, 0.1% BSA) was added at 10 μL/well, and then OX-A (OX1 receptor, final concentration; 1 nM) or OX-A (OX2 receptor, final concentration; 0.3 nM) was added at 10 μL/well, and the fluorescence value was measured by FLIPRtetra (Molecular Devices) every one sec for 2 min.

In assay [2] the target is T2, human OX1 receptor (Homo sapiens, UniProt O43613).
T2 construct: expressed in transfected cells; host or cells: CHO cells
T2 sequence (O43613 1-425): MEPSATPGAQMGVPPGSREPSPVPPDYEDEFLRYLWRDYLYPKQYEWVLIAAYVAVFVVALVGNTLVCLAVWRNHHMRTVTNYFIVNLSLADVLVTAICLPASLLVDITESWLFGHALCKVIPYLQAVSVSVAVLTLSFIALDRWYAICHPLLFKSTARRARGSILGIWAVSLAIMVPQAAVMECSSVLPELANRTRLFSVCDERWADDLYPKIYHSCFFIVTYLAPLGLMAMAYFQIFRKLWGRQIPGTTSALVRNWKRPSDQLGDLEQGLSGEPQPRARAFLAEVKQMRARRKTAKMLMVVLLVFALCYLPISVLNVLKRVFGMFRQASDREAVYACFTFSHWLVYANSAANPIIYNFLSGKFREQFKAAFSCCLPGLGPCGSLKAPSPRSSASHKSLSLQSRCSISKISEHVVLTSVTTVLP
The assay is described as above. In kind it is cell-based. The settings on record: CHO, read-out: Human Orexin1 receptor inhibition (at 10 μM). On the procedure: as §1, §2

The mark [3] stands for this setting: 10 μM test compound, CHO cells expressing human OX2 receptor, OX-A 0.3 nM.
[4] abbreviates: 10 μM test compound, CHO cells expressing human OX1 receptor, OX-A 1 nM.

Regarding `Cc1nccc(N2C[C@H](C)N(C(=O)c3ccccc3-n3nccn3)[C@H](C)CO2)n1` [Example 173, ((4S,6R)-4,6-dimethyl-2-(2-methylpyrimidin-4-yl)-1,2,5-oxadiazepan-5-yl) (2-(2H-1,2,3-triazol-2-yl)phenyl)methanone], the inhibition at 10 µM in assay [1] (setting [3]) and in assay [2] (setting [4]) was 103% throughout. On to `Cc1cc(N2CCN(C(=O)c3cc(F)ccc3-n3nccn3)[C@H](C)CO2)nc(C)n1` [Example 162, ((6R)-2-(2,6-dimethylpyrimidin-4-yl)-6-methyl-1,2,5-oxadiazepan-5-yl)(5-fluoro-2-(2H-1,2,3-triazol-2-yl)phenyl)methanone], for which the inhibition at 10 µM in assay [1] (setting [3]) worked out at 100%; in assay [2] (setting [4]), 42%.

Regarding `Cc1ccc(N2CCN(C(=O)c3cc(C)ccc3-n3nccn3)[C@H](C)CO2)nc1` [Example 141, ((6R)-6-methyl-2-(5-methylpyridin-2-yl)-1,2,5-oxadiazepan-5-yl) (5-methyl-2-(2H-1,2,3-triazol-2-yl)phenyl)methanone], the values for the inhibition at 10 µM in assay [1] and in assay [2] were 99% and 71%, respectively.

Regarding `COc1cncc(N2CCN(C(=O)c3cc(C)ccc3-n3nccn3)[C@H](C)CO2)c1` [Example 132, ((6R)-2-(5-methoxypyridin-3-yl)-6-methyl-1,2,5-oxadiazepan-5-yl) (5-methyl-2-(2H-1,2,3-triazol-2-yl)phenyl)methanone], the inhibition at 10 µM came to 67% in assay [1] (setting [3]) and 10% in assay [2] (setting [4]).

`Cc1cccc(N2CCN(C(=O)c3ccccc3-c3nccs3)C[C@H](C)O2)n1` [Example 89, ((7S)-7-methyl-2-(6-methylpyridin-2-yl)-1,2,5-oxadiazepan-5-yl) (2-(1,3-thiazol-2-yl)phenyl)methanone]: the inhibition at 10 µM in assay [1] (setting [3]) is 97%; in assay [2] (setting [4]), 101%.

In the case of `Cc1cc(N2CCN(C(=O)c3ccccc3-c3ncccn3)C[C@H](C)O2)nc(C)n1` [Example 109, ((7S)-2-(2,6-dimethylpyrimidin-4-yl)-7-methyl-1,2,5-oxadiazepan-5-yl)(2-(pyrimidin-2-yl)phenyl)methanone], the inhibition at 10 µM in assay [1] (setting [3]) turned out to be 101%; in assay [2] (setting [4]) it was 85%. As to `Cc1cc(N2CCN(C(=O)c3ccccc3-n3nccn3)CCO2)nc(C)n1` [Example 20, (2-(2,6-dimethylpyrimidin-4-yl)-1,2,5-oxadiazepan-5-yl) (2-(2H-1,2,3-triazol-2-yl)phenyl)methanone], the inhibition at 10 µM in assay [1] (setting [3]) is 101%; in assay [2] (setting [4]), 25%. The like results for `Cc1cc(N2CCN(C(=O)c3ccccc3C#N)C[C@H](C)O2)nc(C)n1` [Example 209, 2-(((7S)-2-(2,6-dimethylpyrimidin-4-yl)-7-methyl-1,2,5-oxadiazepan-5-yl)carbonyl)benzonitrile] were, in that order, 18% and -12%. The like results for `Cc1ccc(-n2nccn2)c(C(=O)N2CCN(c3nc(C)cc(C#N)n3)OC[C@H]2C)c1` [Example 115, 6-methyl-2-((6R)-6-methyl-5-(5-methyl-2-(2H-1,2,3-triazol-2-yl)benzoyl)-1,2,5-oxadiazepan-2-yl)pyrimidine-4-carbonitrile] were, in that order, 100% and 103%. The like results for `Cc1nccc(N2CCN(C(=O)c3cc(Cl)ccc3-c3ncccn3)C[C@H](C)O2)n1` [Example 219, (5-chloro-2-(pyrimidin-2-yl)phenyl)((7S)-7-methyl-2-(2-methylpyrimidin-4-yl)-1,2,5-oxadiazepan-5-yl)methanone] were, in that order, 100% and 72%.

As for `Cc1cc(N2CCN(C(=O)c3cc(Br)ccc3-n3nccn3)CCO2)nc(C)n1` [Example 26, (5-bromo-2-(2H-1,2,3-triazol-2-yl)phenyl) (2-(2,6-dimethyl-pyrimidin-4-yl)-1,2,5-oxadiazepan-5-yl)methanone], the results for the inhibition at 10 µM in assay [1] (setting [3]) and in assay [2] (setting [4]) were 100% and 83%, respectively.

`COc1nc(N2CCN(C(=O)c3cc(C)ccc3-n3nccn3)[C@H](C)CO2)ncc1F` [Example 117, ((6R)-2-(5-fluoro-4-methoxypyrimidin-2-yl)-6-methyl-1,2,5-oxadiazepan-5-yl)(5-methyl-2-(2H-1,2,3-triazol-2-yl)phenyl)methanone hydrochloride]: the inhibition at 10 µM in assay [1] (setting [3]) amounted to 100%; in assay [2] (setting [4]), 77%. The like results for `Cc1ncc(Cl)c(N2CCN(C(=O)c3cc(Cl)ccc3-n3nccn3)[C@H](C)CO2)n1` [Example 215, ((6R)-2-(5-chloro-2-methylpyrimidin-4-yl)-6-methyl-1,2,5-oxadiazepan-5-yl)(5-chloro-2-(2H-1,2,3-triazol-2-yl)phenyl)methanone] were, in that order, 102% and 40%. For the molecule `Cc1cc(N2CCN(C(=O)c3cc(Cl)ccc3-c3ncccn3)CCO2)nc(C)n1` [Example 226, (5-chloro-2-(pyrimidin-2-yl)phenyl)(2-(2,6-dimethylpyrimidin-4-yl)-1,2,5-oxadiazepan-5-yl)methanone], the inhibition at 10 µM was 101% in assay [1] (setting [3]) and 80% in assay [2] (setting [4]). The like results for `Cc1nccc(N2CCN(C(=O)c3ccccc3-c3ncccn3)C[C@H](C)O2)n1` [Example 206, ((7S)-7-methyl-2-(2-methylpyrimidin-4-yl)-1,2,5-oxadiazepan-5-yl)(2-(pyrimidin-2-yl)phenyl)methanone] were, in that order, 100% and 28%. On to `CCc1ccc(-n2nccn2)c(C(=O)N2CCON(c3cc(C)nc(C)n3)CC2)c1` [Example 203, (2-(2,6-dimethylpyrimidin-4-yl)-1,2,5-oxadiazepan-5-yl)(5-ethyl-2-(2H-1,2,3-triazol-2-yl)phenyl)methanone], for which the inhibition at 10 µM was determined as 101% in assay [1] (setting [3]) and 25% in assay [2] (setting [4]).

As to `Cc1cc(N2CCN(C(=O)c3cc(F)c(F)cc3-c3ncccn3)C[C@H](C)O2)nc(C)n1` [Example 198, (4,5-difluoro-2-(pyrimidin-2-yl)phenyl)((7S)-2-(2,6-dimethylpyrimidin-4-yl)-7-methyl-1,2,5-oxadiazepan-5-yl)methanone], the figures for the inhibition at 10 µM in assay [1] (setting [3]) and in assay [2] (setting [4]) were 98% and 80%, respectively.

Turning to `Cc1cc(N2CCN(C(=O)c3ccccc3-c3nc(C)no3)CCO2)nc(C)n1` [Example 24, (2-(2,6-dimethyl-pyrimidin-4-yl)-1,2,5-oxadiazepan-5-yl) (2-(3-methyl-1,2,4-oxadiazol-5-yl)phenyl) methanone], the results for the inhibition at 10 µM in assay [1] (setting [3]) and in assay [2] (setting [4]) were 99% and 13%, respectively. The like results for `Cc1ccc(-n2nccn2)c(C(=O)N2CCN(c3ccc(Cl)cn3)OC[C@H]2C)c1` [Example 121, ((6R)-2-(5-chloropyridin-2-yl)-6-methyl-1,2,5-oxadiazepan-5-yl) (5-methyl-2-(2H-1,2,3-triazol-2-yl)phenyl)methanone] were, in that order, 94% and 92%. `Cc1nc(N2CCN(C(=O)c3ccccc3-c3ncccn3)[C@H](C)CO2)cc(C(F)(F)F)n1` [Example 214, ((6R)-6-methyl-2-(2-methyl-6-(trifluoromethyl)pyrimidin-4-yl)-1,2,5-oxadiazepan-5-yl)(2-(pyrimidin-2-yl)phenyl)methanone]: the figures for the inhibition at 10 µM in assay [1] (setting [3]) and in assay [2] (setting [4]) were 103% and 55%, respectively. The like results for `Cc1cc(N2CCN(C(=O)c3ccccc3-c3ccccn3)CCO2)nc(C)n1` [Example 43, (2-(2,6-dimethylpyrimidin-4-yl)-1,2,5-oxadiazepan-5-yl)(2-(pyridin-2-yl)phenyl)methanone hydrochloride] were, in that order, 91% and 35%.

Take `Cc1cc(C)nc(N2CCN(C(=O)c3ccc(Cl)cc3)CCO2)n1` [Example 40, (4-chlorophenyl)(2-(4,6-dimethylpyrimidin-2-yl)-1,2,5-oxadiazepan-5-yl)methanone]: the inhibition at 10 µM in assay [1] (setting [3]) is 4%.
